Experimental data published in ChEMBL document CHEMBL1144881, “3,6-dibromocarbazole piperazine derivatives of 2-propanol as first inhibitors of cytochrome c release via Bax channel modulation” (J Med Chem, 2003).

How the values were obtained:
HeLa [1] = assay: cells; assay type: functional; conditions: Homo sapiens
Description: In vitro inhibition of cytochrome C release in isolated mitochondria by the compound at a concentration of 10 uM was determined

HeLa [2] = assay: cells; assay type: functional; conditions: Homo sapiens; remark: listed apart in the source
HeLa [3] = assay: cells; assay type: functional; conditions: Homo sapiens; remark: listed apart in the source
Description: In vitro inhibition of cytochrome C release in isolated mitochondria by the compound at a concentration of 20 uM was determined

[4] = target: Apoptosis regulator BAX (Homo sapiens) (UniProt Q07812); assay: cells
HeLa [5] = assay: In vitro inhibition of cytochrome C release in isolated mitochondria by the compound was determined; assay type: functional, Homo sapiens; design: concentration or dose not given beside the values

Compound | IC50 [4] [nM] | inhibition at 10 µM (HeLa [1]) [%] | inhibition at 5 µM (HeLa [2]) [%] | inhibition at 20 µM (HeLa [3]) [%] | Inhibition (HeLa [5]) [%]
OC(CN1CCNCC1)Cn1c2ccc(Br)cc2c2cc(Br)ccc21 (stereo not given) |  | 94 | 77 | 99 | 
COc1ccc(CN2CCN(CC(O)Cn3c4ccc(Br)cc4c4cc(Br)ccc43)CC2)cc1 (stereo not given) | 370 | 82 | 61 | 99 | 
O=C(CN1CCNCC1)Cn1c2ccc(Br)cc2c2cc(Br)ccc21 | 290 |  |  |  | 71
O=C(Nc1ccc(F)cc1)N1CCN(CC(O)Cn2c3ccc(Br)cc3c3cc(Br)ccc32)CC1 (stereo not given) | 1270 |  |  |  | 15
OC(CN1CCN(Cc2ccc(F)cc2)CC1)Cn1c2ccc(Br)cc2c2cc(Br)ccc21 (stereo not given) | 480 |  |  |  | 65

Now from value to molecule, other results behind:

IC50 [4] [nM] | Compound | inhibition at 10 µM (HeLa [1]) [%] | inhibition at 5 µM (HeLa [2]) [%] | inhibition at 20 µM (HeLa [3]) [%] | Inhibition (HeLa [5]) [%]
470 | OC(CN1CCN(CCN2CCOCC2)CC1)Cn1c2ccc(Br)cc2c2cc(Br)ccc21 (stereo not given) | 74 | 21 | 95 | 
960 | NC(CN1CCNCC1)Cn1c2ccc(Br)cc2c2cc(Br)ccc21 (stereo not given) |  |  |  | 71
680 | FC(F)(CN1CCNCC1)Cn1c2ccc(Br)cc2c2cc(Br)ccc21 | 83 | 61 | 96 | 
2380 | OC(CN1CCN(c2ccc(F)cc2)CC1)Cn1c2ccc(Br)cc2c2cc(Br)ccc21 (stereo not given) |  |  |  | 15
